According to PubChem BioAssay AID248 (DTP/NCI, 2004):
Where “and” joins values, the source holds several entries; their conditions need not be identical. Equal entries are not always repeated. Toxic doses and inconclusive results are not listed. Cut-off read from the data, not from the text of the source: active = T/C of 150% or more; inactive = T/C below 125%.

System: L1210 leukemia ip in BDF1 mice, survival T/C
Assay: NCI In Vivo Anticancer Drug Screen. Data for tumor model L1210 Leukemia (intraperitoneal) in B6D2F1 (BDF1) mice
Conditions: endpoint: mean survival time, higher = longer survival
How it was run: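 Ratio derived from survival: compound-dosed mice over vehicle-dosed mice, all bearing a transplantable tumor.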

[1] = dose: 50.0 mg/kg/injection, schedule: Q01DX009 (ip), vehicle: saline with Tween-80
[2] = dose: 100.0 mg/kg/injection, schedule: Q01DX009 (ip), vehicle: saline with Tween-80
[3] = dose: 200.0 mg/kg/injection, schedule: Q01DX009 (ip), vehicle: saline with Tween-80
[4] = dose: 100.0 mg/kg/injection, schedule: Q04DX003 (ip), vehicle: Klucel (hydroxypropylcellulose) (HPC)
[5] = dose: 200.0 mg/kg/injection, schedule: Q04DX003 (ip), vehicle: Klucel (hydroxypropylcellulose) (HPC)
[6] = dose: 400.0 mg/kg/injection, schedule: Q04DX003 (ip), vehicle: Klucel (hydroxypropylcellulose) (HPC)
[7] = dose: 100.0 mg/kg/injection, schedule: Q01DX001 (ip), vehicle: Klucel (hydroxypropylcellulose) (HPC)
[8] = dose: 100.0 mg/kg/injection, schedule: Q01DX009 (ip), vehicle: Klucel (hydroxypropylcellulose) (HPC)
[9] = dose: 100.0 mg/kg/injection, schedule: Q04DX002 (ip), vehicle: Klucel (hydroxypropylcellulose) (HPC)
[10] = dose: 200.0 mg/kg/injection, schedule: Q01DX001 (ip), vehicle: Klucel (hydroxypropylcellulose) (HPC)
[11] = dose: 200.0 mg/kg/injection, schedule: Q01DX009 (ip), vehicle: Klucel (hydroxypropylcellulose) (HPC)
[12] = dose: 200.0 mg/kg/injection, schedule: Q04DX002 (ip), vehicle: Klucel (hydroxypropylcellulose) (HPC)
[13] = dose: 400.0 mg/kg/injection, schedule: Q01DX001 (ip), vehicle: Klucel (hydroxypropylcellulose) (HPC)
[14] = dose: 400.0 mg/kg/injection, schedule: Q01DX009 (ip), vehicle: Klucel (hydroxypropylcellulose) (HPC)
[15] = dose: 400.0 mg/kg/injection, schedule: Q04DX002 (ip), vehicle: Klucel (hydroxypropylcellulose) (HPC)
[16] = dose: 100.0 mg/kg/injection, schedule: Q04DX002 (ip), vehicle: saline with Tween-80
[17] = dose: 200.0 mg/kg/injection, schedule: Q04DX002 (ip), vehicle: saline with Tween-80
[18] = dose: 400.0 mg/kg/injection, schedule: Q04DX002 (ip), vehicle: saline with Tween-80
[19] = dose: 50.0 mg/kg/injection, schedule: Q01DX001 (ip), vehicle: carboxymethylcellulose (CMC)
[20] = dose: 100.0 mg/kg/injection, schedule: Q01DX001 (ip), vehicle: carboxymethylcellulose (CMC)
[21] = dose: 200.0 mg/kg/injection, schedule: Q01DX001 (ip), vehicle: carboxymethylcellulose (CMC)
[22] = dose: 400.0 mg/kg/injection, schedule: Q01DX001 (ip), vehicle: carboxymethylcellulose (CMC)
[23] = dose: 100.0 mg/kg/injection, schedule: Q04DX003 (ip), vehicle: saline
[24] = dose: 200.0 mg/kg/injection, schedule: Q04DX003 (ip), vehicle: saline
[25] = dose: 400.0 mg/kg/injection, schedule: Q04DX003 (ip), vehicle: saline

Measured: T/C

CCOCc1c(COc2ccc(Br)cc2)n(C)c2ccccc12
inactive: dose: 25.0 mg/kg/injection, schedule: Q01DX009 (ip), vehicle: saline with Tween-80 100 % of control | [1] 89 % of control and 90 % of control | [2] 90 % of control | [3] 99 % of control

Nc1ccc2cc3ccccc3cc2c1
inactive: dose: 12.5 mg/kg/injection, schedule: Q01DX015 (ip), vehicle: saline 104 % of control | dose: 25.0 mg/kg/injection, schedule: Q01DX015 (ip), vehicle: saline 95 % of control | dose: 50.0 mg/kg/injection, schedule: Q01DX015 (ip), vehicle: saline 95 % of control | dose: 100.0 mg/kg/injection, schedule: Q01DX015 (ip), vehicle: saline 97 % of control

Cc1cc(=O)n(-c2ccccc2)cn1
inactive: [4] 98 % of control | [5] 89 % of control | [6] 96 % of control

COc1ccccc1/C(=C/c1ccc([N+](=O)[O-])cc1)C(=O)O
inactive: [7] 100 % of control | [8] 97 % of control and 100 % of control | [9] 101 % of control and 107 % of control | [4] 97 % of control | [10] 94 % of control | [11] 95 % of control and 103 % of control | [12] 102 % of control and 103 % of control | [5] 100 % of control | [13] 94 % of control | [14] 100 % of control | [15] 97 % of control and 104 % of control | [6] 101 % of control

O=c1ccn(C2OC(CF)C(O)C2O)c(=O)[nH]1 (configuration not stated)
inactive: dose: 100.0 mg/kg/injection, schedule: Q01DX005 (ip), vehicle: saline 104 % of control | [4] 106 % of control | dose: 200.0 mg/kg/injection, schedule: Q01DX005 (ip), vehicle: saline 104 % of control | [5] 110 % of control | [6] 101 % of control

COc1cc(OC)c(-c2nc3ccc(C)cc3c(=O)o2)cc1OC
inactive: [16] 103 % of control | [17] 100 % of control | [18] 103 % of control

CCCCCC/C=C/C(=O)OCC
inactive: dose: 100.0 mg/kg/injection, schedule: Q04DX003 (ip), vehicle: saline with Tween-80 96 % of control | dose: 200.0 mg/kg/injection, schedule: Q04DX003 (ip), vehicle: saline with Tween-80 101 % of control | dose: 400.0 mg/kg/injection, schedule: Q04DX003 (ip), vehicle: saline with Tween-80 101 % of control

C/C(CCCCCCCCC#N)=N/Nc1ccc([N+](=O)[O-])cc1[N+](=O)[O-]
inactive: [4] 93 % of control | [5] 93 % of control | [6] 98 % of control

CCOC(=O)c1ccc(N(CCC(O)CN=[N+]=[N-])S(=O)(=O)c2ccc(C)cc2)cc1 (configuration not stated)
inactive: [19] 96 % of control | [20] 100 % of control | [21] 96 % of control | [22] 100 % of control

CCN(CC)c1ccc(N=C2C=C(C(=O)Nc3ccccc3OC)C(=O)c3ccccc32)c(C)c1
inactive: dose: 100.0 mg/kg/injection, schedule: Q01DX001 (ip), vehicle: saline 102 % of control | dose: 200.0 mg/kg/injection, schedule: Q01DX001 (ip), vehicle: saline 105 % of control | dose: 400.0 mg/kg/injection, schedule: Q01DX001 (ip), vehicle: saline 96 % of control

CCC(=O)/C=C/C1=C(C)CCCC1(C)C
inactive: [2] 96 % of control | [23] 95 % of control | [3] 93 % of control | [24] 97 % of control | [25] 97 % of control

NC(=O)C(=O)OCc1ccccc1
inactive: dose: 100.0 mg/kg/injection, schedule: Q01DX001 (ip), vehicle: steriod suspending solution 105 % of control | dose: 200.0 mg/kg/injection, schedule: Q01DX001 (ip), vehicle: steriod suspending solution 97 % of control | dose: 400.0 mg/kg/injection, schedule: Q01DX001 (ip), vehicle: steriod suspending solution 94 % of control

CN(CCNC(=O)c1ccc(Cl)cc1)c1ccccc1
inactive: [9] 96 % of control | [12] 96 % of control | [15] 86 % of control

CC(NP1(=O)OCC(C)([N+](=O)[O-])CO1)c1ccccc1 (configuration not stated)
inactive: [19] 97 % of control | [20] 113 % of control | [21] 115 % of control | [22] 95 % of control

COC(=O)C1CC23CCCC12CC3 (configuration not stated)
inactive: dose: 50.0 mg/kg/injection, schedule: Q04DX002 (ip), vehicle: saline with Tween-80 92 % of control | [16] 103 % of control | [17] 92 % of control

O=C1C=C(Nc2ccc(S(=O)(=O)N(CCCl)CCCl)cc2)c2ccccc2C1=O
inactive: [8] 97 % of control | [11] 100 % of control | [14] 102 % of control

O=C(O)C1C(C(=O)O)C2(c3ccccc3)C(=O)C1(c1ccccc1)C(c1ccccc1)=C2c1ccccc1 (configuration not stated)
inactive: dose: 100.0 mg/kg/injection, schedule: Q01DX001 (ip), vehicle: saline with Tween-80 89 % of control | dose: 200.0 mg/kg/injection, schedule: Q01DX001 (ip), vehicle: saline with Tween-80 110 % of control | dose: 400.0 mg/kg/injection, schedule: Q01DX001 (ip), vehicle: saline with Tween-80 100 % of control

CCOC(=O)CNC(=O)Oc1cc(C)c(Cl)cc1C
inactive: [20] 100 % of control and 110 % of control | dose: 100.0 mg/kg/injection, schedule: Q01DX009 (ip), vehicle: carboxymethylcellulose (CMC) 89 % of control | dose: 100.0 mg/kg/injection, schedule: Q04DX002 (ip), vehicle: carboxymethylcellulose (CMC) 93 % of control and 96 % of control | dose: 100.0 mg/kg/injection, schedule: Q04DX003 (ip), vehicle: carboxymethylcellulose (CMC) 101 % of control and 90 % of control | [21] 106 % of control and 109 % of control | dose: 200.0 mg/kg/injection, schedule: Q01DX009 (ip), vehicle: carboxymethylcellulose (CMC) 95 % of control | dose: 200.0 mg/kg/injection, schedule: Q04DX002 (ip), vehicle: carboxymethylcellulose (CMC) 98 % of control and 99 % of control | dose: 200.0 mg/kg/injection, schedule: Q04DX003 (ip), vehicle: carboxymethylcellulose (CMC) 94 % of control and 103 % of control | [22] 102 % of control and 103 % of control | dose: 400.0 mg/kg/injection, schedule: Q01DX009 (ip), vehicle: carboxymethylcellulose (CMC) 100 % of control | dose: 400.0 mg/kg/injection, schedule: Q04DX002 (ip), vehicle: carboxymethylcellulose (CMC) 95 % of control and 99 % of control | dose: 400.0 mg/kg/injection, schedule: Q04DX003 (ip), vehicle: carboxymethylcellulose (CMC) 97 % of control and 87 % of control

CN(C)Cc1ccc([N+](=O)[O-])cc1
inactive: dose: 25.0 mg/kg/injection, schedule: Q01DX009 (ip), vehicle: saline 93 % of control | dose: 50.0 mg/kg/injection, schedule: Q01DX009 (ip), vehicle: saline 98 % of control | dose: 75.0 mg/kg/injection, schedule: Q01DX001 (ip), vehicle: other 98 % of control | dose: 100.0 mg/kg/injection, schedule: Q01DX009 (ip), vehicle: saline 101 % of control | [23] 95 % of control | dose: 200.0 mg/kg/injection, schedule: Q01DX009 (ip), vehicle: saline 96 % of control | [24] 87 % of control

c1ccc2c(c1)[nH]c1nc3ncncc3nc12
inactive: [23] 94 % of control | [24] 88 % of control | [25] 97 % of control

CCOC(=O)c1cnc(SC)nc1Nc1ccc(OC)cc1
inactive: [8] 96 % of control | [4] 95 % of control | [11] 91 % of control | [5] 98 % of control | [14] 94 % of control | [6] 90 % of control

CCc1cccc(CC)c1NC(=O)/C=C/C(=O)O
inactive: [16] 93 % of control | [17] 100 % of control | [18] 96 % of control

CCCCCCCCCCCCCCCC(=O)c1ccccc1
inactive: [7] 106 % of control | [10] 103 % of control | [13] 88 % of control

CC(C)=CCc1cccc(C)c1
inactive: [1] 94 % of control | [2] 98 % of control | [3] 105 % of control

CCCCCCC(O)/C=C/c1ccc(Cl)cc1 (configuration not stated)
inactive: [2] 94 % of control | [3] 91 % of control
